According to patent US9206219B2, “17-hydroxy-17-pentafluorethyl-estra-4,9(10)-dien-11-aryl derivatives, methods for the production thereof and the use thereof for treating diseases” (Bayer Intellectual Property GmbH, priority 2009, dated 2015):

Assays:
[1] = biological target: T1, human progesterone receptor A (Homo sapiens, UniProt P06401); experiment: Progesterone receptor-antagonistic action in stably transfected SK-N-MC cells, MMTV-LUC reporter (PR-A); type: cell-based; conditions: antagonistic potency vs 0.1 nmol/l promegestone, 24 hours
T1 construct: expressed in transfected cells; host or cells: SK-N-MC human neuroblastoma cells, stably transfected with pRChPR-A-neo and pMMTV-LUC
T1 sequence (P06401 1-769 isoform P06401-2): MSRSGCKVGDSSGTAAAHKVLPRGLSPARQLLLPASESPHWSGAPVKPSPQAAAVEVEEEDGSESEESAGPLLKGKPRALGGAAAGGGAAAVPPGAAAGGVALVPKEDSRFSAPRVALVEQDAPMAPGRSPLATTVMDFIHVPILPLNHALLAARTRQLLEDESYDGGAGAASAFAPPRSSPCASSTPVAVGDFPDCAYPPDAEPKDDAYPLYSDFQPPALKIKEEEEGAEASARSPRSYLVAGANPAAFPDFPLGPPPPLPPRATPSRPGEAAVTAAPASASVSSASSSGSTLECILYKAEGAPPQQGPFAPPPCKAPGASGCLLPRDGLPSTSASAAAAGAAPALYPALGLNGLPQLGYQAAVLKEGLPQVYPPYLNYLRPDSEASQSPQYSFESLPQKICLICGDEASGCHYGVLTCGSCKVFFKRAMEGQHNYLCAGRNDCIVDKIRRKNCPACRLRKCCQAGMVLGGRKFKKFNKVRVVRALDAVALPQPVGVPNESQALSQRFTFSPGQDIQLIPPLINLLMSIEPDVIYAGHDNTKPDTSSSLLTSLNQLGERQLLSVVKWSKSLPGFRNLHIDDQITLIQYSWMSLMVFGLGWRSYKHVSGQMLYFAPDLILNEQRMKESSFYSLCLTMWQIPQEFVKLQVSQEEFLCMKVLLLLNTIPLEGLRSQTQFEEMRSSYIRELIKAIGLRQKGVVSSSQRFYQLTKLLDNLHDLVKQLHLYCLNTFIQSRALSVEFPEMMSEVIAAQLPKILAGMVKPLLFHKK
How it was run: (§1)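 Stably transfected SK-N-MC cells express human PR-B or PR-A plus MMTV-LUC. For antagonism they were co-treated with 0.1 nmol/l promegestone and compound (0.01 nmol/l upward) for 24 hours. Luciferase in lysates was read as RLU and reported as % efficacy and IC50.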

[2] = Metabolic stability in human liver microsomes; type: in vitro ADME; conditions: calculated from liver microsome clearance
Procedure: (§2) Determination of Metabolic Stability in Human and Rat Liver Microsomes
Isolated human liver microsomes (HLM) were used to assess the metabolic stability of compounds of general formula I.
(§3) The incubations were conducted with 2.4 ml of HLM solution (protein content 0.5 mg/ml), 30 μl of the test compound (final concentration 1 μM) and 0.6 ml of the cofactor mixture (=NADPH-generating system composed of 3 IU glucose-6-phosphate dehydrogenase, 14.6 mg glucose-6-phosphate, 1.2 mg NADP) at 37° C. in 100 mM phosphate buffer at pH 7.4. Samples were taken at 6 time points (2-60 min) and precipitated with an equal volume of methanol, and the recovery of the test substances used in the supernatant was determined by LC-MS/MS analysis. The half-life of substance degradation determined therefrom was used to calculate what is called the intrinsic clearance of the substance in the liver microsome preparation. […] In addition, under the assumptions that (i) absorption of the test substance is 100%, and (ii) the first pass is completely reflected by liver microsome metabolism, a maximum oral bioavailability (Fmax) was calculated.

[3] = biological target: T2, human progesterone receptor B (Homo sapiens, UniProt P06401); experiment: Progesterone receptor-antagonistic action in stably transfected SK-N-MC cells, MMTV-LUC reporter (PR-B); type: cell-based; conditions: antagonistic potency vs 0.1 nmol/l promegestone, 24 hours
T2 construct: expressed in transfected cells; host or cells: SK-N-MC human neuroblastoma cells, stably transfected with pRChPR-B-neo and pMMTV-LUC
T2 sequence (P06401 1-933): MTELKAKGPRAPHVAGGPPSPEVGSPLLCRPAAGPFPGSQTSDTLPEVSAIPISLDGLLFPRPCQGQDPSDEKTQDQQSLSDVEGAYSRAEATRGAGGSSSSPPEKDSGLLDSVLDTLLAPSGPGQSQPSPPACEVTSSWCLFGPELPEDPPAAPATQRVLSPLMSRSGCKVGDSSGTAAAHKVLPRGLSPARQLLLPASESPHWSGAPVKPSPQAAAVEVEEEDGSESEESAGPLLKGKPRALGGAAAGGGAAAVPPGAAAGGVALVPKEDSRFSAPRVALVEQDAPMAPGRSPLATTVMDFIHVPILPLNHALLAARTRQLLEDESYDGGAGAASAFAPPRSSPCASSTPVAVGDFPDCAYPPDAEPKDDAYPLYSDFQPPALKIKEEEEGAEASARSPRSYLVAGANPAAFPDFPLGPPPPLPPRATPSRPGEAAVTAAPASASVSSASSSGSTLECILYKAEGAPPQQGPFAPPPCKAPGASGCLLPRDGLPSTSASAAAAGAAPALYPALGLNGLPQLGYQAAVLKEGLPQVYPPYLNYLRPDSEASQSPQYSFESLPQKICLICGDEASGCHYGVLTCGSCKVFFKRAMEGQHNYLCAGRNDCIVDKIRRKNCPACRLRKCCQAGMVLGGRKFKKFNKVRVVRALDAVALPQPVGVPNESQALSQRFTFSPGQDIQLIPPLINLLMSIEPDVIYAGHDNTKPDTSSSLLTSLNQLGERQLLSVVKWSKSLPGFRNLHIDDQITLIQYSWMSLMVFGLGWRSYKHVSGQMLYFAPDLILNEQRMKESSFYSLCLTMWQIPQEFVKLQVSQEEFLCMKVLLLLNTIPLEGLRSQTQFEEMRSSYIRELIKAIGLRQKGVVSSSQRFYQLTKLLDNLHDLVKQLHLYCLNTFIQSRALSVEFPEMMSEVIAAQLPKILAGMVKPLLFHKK
How it was run: as §1

[4] = Metabolic stability in rat liver microsomes; type: in vitro ADME; conditions: calculated from liver microsome clearance
Procedure: as §2, §3

SMILES	IC50 [1] [nM]	Predicted Fmax (maximum oral bioavailability) [2] [%]	IC50 [3] [nM]	Predicted Fmax (maximum oral bioavailability) [4] [%]
C[C@]12C[C@H](c3ccc(CCc4ccccn4)cc3)C3=C4CCC(=O)C=C4CC[C@H]3[C@@H]1CC[C@@]2(O)C(F)(F)C(F)(F)F [Example 2, (8S,11R,13S,14S,17S)-17-hydroxy-13-methyl-17-pentafluoroethyl-11-[4-(2-pyridin-2-ylethyl)phenyl]-1,2,6,7,8,11,12,13,14,15,16,17-dodecahydrocyclopenta[a]phenanthren-3-one]	0.095		0.11	18
CC1(c2ccc([C@H]3C[C@@]4(C)[C@@H](CC[C@@]4(O)C(F)(F)C(F)(F)F)[C@@H]4CCC5=CC(=O)CCC5=C43)cc2)CC1 [Example 4, (8S,11R,13S,14S,17S)-17-hydroxy-13-methyl-11-[4-(1-methylcyclopropyl)phenyl]-17-pentafluoroethyl-1,2,6,7,8,11,12,13,14,15,16,17-dodecahydrocyclopenta[a]phenanthren-3-one]	0.012	37	0.012	52
C[C@]12C[C@H](c3ccc(CCc4ccncc4)cc3)C3=C4CCC(=O)C=C4CC[C@H]3[C@@H]1CC[C@@]2(O)C(F)(F)C(F)(F)F [Example 8, (8S,11R,13S,14S,17S)-17-hydroxy-13-methyl-17-pentafluoroethyl-11-[4-(2-pyridin-4-ylethyl)phenyl]-1,2,6,7,8,11,12,13,14,15,16,17-dodecahydrocyclopenta[a]phenanthren-3-one]	0.08		0.09	19
Cc1nc(CCc2ccc([C@H]3C[C@@]4(C)[C@@H](CC[C@@]4(O)C(F)(F)C(F)(F)F)[C@@H]4CCC5=CC(=O)CCC5=C43)cc2)cs1 [Example 3, (8S,11R,13S,14S,17S)-17-hydroxy-13-methyl-11-{4-[2-(2-methylthiazol-4-yl)ethyl]phenyl}-17-pentafluoroethyl-1,2,6,7,8,11,12,13,14,15,16,17-dodecahydrocyclopenta[a]phenanthren-3-one]	0.09		0.04	15
C[C@]12C[C@H](c3ccc(CCc4cccnc4)cc3)C3=C4CCC(=O)C=C4CC[C@H]3[C@@H]1CC[C@@]2(O)C(F)(F)C(F)(F)F [Example 7, (8S,11R,13S,14S,17S)-17-hydroxy-13-methyl-17-pentafluoroethyl-11-[4-(2-pyridin-3-ylethyl)phenyl]-1,2,6,7,8,11,12,13,14,15,16,17-dodecahydrocyclopenta[a]phenanthren-3-one]	0.08		0.09	20

The remaining lines, values ahead:

IC50 [1] [nM]	Predicted Fmax (maximum oral bioavailability) [2] [%]	IC50 [3] [nM]	Predicted Fmax (maximum oral bioavailability) [4] [%]	SMILES
0.01	5.0	0.01	4.7	CC1(C)OCC(C)(c2ccc([C@H]3C[C@@]4(C)[C@@H](CC[C@@]4(O)C(F)(F)C(F)(F)F)[C@@H]4CCC5=CC(=O)CCC5=C43)cc2)CO1 [Example 15B, (8S,11R,13S,14S,17S)-17-hydroxy-13-methyl-17-pentafluoroethyl-11-[4-(2,2,5-trimethyl-[1,3]dioxan-5-yl)phenyl]-1,2,6,7,8,11,12,13,14,15,16,17-dodecahydrocyclopenta[a]phenanthren-3-one]
0.06		0.1	4.9	C[C@]12C[C@H](c3ccc(CCC#N)cc3)C3=C4CCC(=O)C=C4CC[C@H]3[C@@H]1CC[C@@]2(O)C(F)(F)C(F)(F)F [Example 9, 3-[4-((8S,11R,13S,14S,17S)-17-hydroxy-13-methyl-3-oxo-17-pentafluoroethyl-2,3,6,7,8,11,12,13,14,15,16,17-dodecahydro-1H-cyclopenta[a]phenanthren-11-yl)phenyl]propionitrile]
0.3		0.8	29	C[C@]12C[C@H](c3ccc(CNC(=O)NCc4ccccc4)cc3)C3=C4CCC(=O)C=C4CC[C@H]3[C@@H]1CC[C@@]2(O)C(F)(F)C(F)(F)F [Example 23, 1-benzyl-3-[4-((8S,11R,13S,14S,17S)-17-hydroxy-13-methyl-3-oxo-17-pentafluoroethyl-2,3,6,7,8,11,12,13,14,15,16,17-dodecahydro-1H-cyclopenta[a]phenanthren-11-yl)benzyl]urea]
0.02	63	0.08	79	C[C@]12C[C@H](c3ccc(C#N)cc3)C3=C4CCC(=O)C=C4CC[C@H]3[C@@H]1CC[C@@]2(O)C(F)(F)C(F)(F)F [Example 30, 4-((8S,11R,13S,14S,17S)-17-hydroxy-13-methyl-3-oxo-17-pentafluoroethyl-2,3,6,7,8,11,12,13,14,15,16,17-dodecahydro-1H-cyclopenta[a]phenanthren-11-yl)benzonitrile]
0.4		0.5	77	C[C@]12C[C@H](c3ccc(CNC(=O)Nc4ccccc4)cc3)C3=C4CCC(=O)C=C4CC[C@H]3[C@@H]1CC[C@@]2(O)C(F)(F)C(F)(F)F [Example 24, 1-[4-((8S,11R,13S,14S,17S)-17-hydroxy-13-methyl-3-oxo-17-pentafluoroethyl-2,3,6,7,8,11,12,13,14,15,16,17-dodecahydro-1H-cyclopenta[a]phenanthren-11-yl)benzyl]-3-phenyl urea]
0.09		0.1	49	CCNC(=O)OCc1ccc([C@H]2C[C@@]3(C)[C@@H](CC[C@@]3(O)C(F)(F)C(F)(F)F)[C@@H]3CCC4=CC(=O)CCC4=C32)cc1 [Example 41, ethylcarbamic acid 4-((8S,11R,13S,14S,17S)-17-hydroxy-13-methyl-3-oxo-17-pentafluoroethyl-2,3,6,7,8,11,12,13,14,15,16,17-dodecahydro-1H-cyclopenta[a]phenanthren-11-yl)benzyl ester]
0.4		0.8	63	CCNC(=O)NCc1ccc([C@H]2C[C@@]3(C)C(CC[C@@]3(O)C(F)(F)C(F)(F)F)C3CCC4=CC(=O)CCC4=C32)cc1 (stereo partly drawn) [Example 17, 1-ethyl-3-[4-((8S,11R,13S,14S,17S)-17-hydroxy-13-methyl-3-oxo-17-pentafluoroethyl-2,3,6,7,8,11,12,13,14,15,16,17-dodecahydro-M-cyclopenta[a]phenanthren-11-yl)benzyl]urea]
